According to patent publication US20250147039A1, “Compounds for complexation of rare earth elements and/or s-, p-, d- block metals, their coordination compounds, peptide conjugates, method of their preparation and use thereof” (USTAV ORGANICKE CHEMIE A BIOCHEMIE AV CR V.V.I., priority 2021, published 2025):

Columns and labels:
[1] = Formation of 1,5-cz-[Ln(Lig)] from Lig and Ln^III ions (metal dependent click-zip), MOPS/NaOH buffer pH 7.0, analytical HPLC (Charts 1, 2); conditions: MOPS/NaOH buffer pH 7.0
[2] = Formation of 1,5-cz-[M(Lig)] from Lig and M^III ions (metal dependent click-zip) (Charts 4, 5); assay type: physicochemical; conditions: MOPS/NaOH buffer pH 7.0, TD728, TD827 in 50% i-PrOH; for conversion to 1,5-cz-[M(Lig)], Y^III: TD714 sum of two diastereoisomers
[3] = Formation of 1,5-cz-[M(Lig)] from Lig and M^II ions (metal dependent click-zip) (Charts 6, 7); assay type: physicochemical; conditions: MOPS/NaOH buffer pH 7.0, TD728 in 50% i-PrOH

conversion to 1,5-cz-[Ln(Lig)], Ce^III ([1]; after 1 week at 80° C.): 11%
conversion to 1,5-cz-[Ln(Lig)], Ce^III ([1]; after 1 hour at 80° C.): 0%
conversion to 1,5-cz-[Ln(Lig)], Dy^III ([1]; after 1 week at 80° C.): 76%
conversion to 1,5-cz-[Ln(Lig)], Dy^III ([1]; after 1 hour at 80° C.): 1%
conversion to 1,5-cz-[Ln(Lig)], Er^III ([1]; after 1 week at 80° C.): 93%
conversion to 1,5-cz-[Ln(Lig)], Er^III ([1]; after 1 hour at 80° C.): 3%
conversion to 1,5-cz-[Ln(Lig)], Eu^III ([1]; after 1 week at 80° C.): 51%
conversion to 1,5-cz-[Ln(Lig)], Eu^III ([1]; after 1 hour at 80° C.): 1%
conversion to 1,5-cz-[Ln(Lig)], Gd^III ([1]; after 1 week at 80° C.): 54%
conversion to 1,5-cz-[Ln(Lig)], Gd^III ([1]; after 1 hour at 80° C.): 1%
conversion to 1,5-cz-[Ln(Lig)], Ho^III ([1]; after 1 week at 80° C.): 84%
conversion to 1,5-cz-[Ln(Lig)], Ho^III ([1]; after 1 hour at 80° C.): 2%
conversion to 1,5-cz-[Ln(Lig)], La^III ([1]; after 1 week at 80° C.): 18%
conversion to 1,5-cz-[Ln(Lig)], La^III ([1]; after 1 hour at 80° C.): 0%
conversion to 1,5-cz-[Ln(Lig)], Lu^III ([1]; after 1 week at 80° C.): 99%
conversion to 1,5-cz-[Ln(Lig)], Lu^III ([1]; after 1 hour at 80° C.): 6%
conversion to 1,5-cz-[Ln(Lig)], Nd^III ([1]; after 1 week at 80° C.): 34%
conversion to 1,5-cz-[Ln(Lig)], Nd^III ([1]; after 1 hour at 80° C.): 0%
conversion to 1,5-cz-[Ln(Lig)], Pr^III ([1]; after 1 week at 80° C.): 27%
conversion to 1,5-cz-[Ln(Lig)], Pr^III ([1]; after 1 hour at 80° C.): 0%
conversion to 1,5-cz-[Ln(Lig)], Sm^III ([1]; after 1 week at 80° C.): 48%
conversion to 1,5-cz-[Ln(Lig)], Sm^III ([1]; after 1 hour at 80° C.): 1%
conversion to 1,5-cz-[Ln(Lig)], Tb^III ([1]; after 1 week at 80° C.): 68%
conversion to 1,5-cz-[Ln(Lig)], Tb^III ([1]; after 1 hour at 80° C.): 1%
conversion to 1,5-cz-[Ln(Lig)], Tm^III ([1]; after 1 week at 80° C.): 97%
conversion to 1,5-cz-[Ln(Lig)], Tm^III ([1]; after 1 hour at 80° C.): 4%
conversion to 1,5-cz-[Ln(Lig)], Yb^III ([1]; after 1 week at 80° C.): 98%
conversion to 1,5-cz-[Ln(Lig)], Yb^III ([1]; after 1 hour at 80° C.): 5%
conversion to 1,5-cz-[M(Lig)], Sc^III ([2]; 1 week at 80° C.): 1%
conversion to 1,5-cz-[M(Lig)], Y^III ([2]; 1 week at 80° C.): 82%
conversion to 1,5-cz-[M(Lig)], Sc^III ([2]; 1 hour at 80° C.): 0%
conversion to 1,5-cz-[M(Lig)], Y^III ([2]; 1 hour at 80° C.): 1%
conversion to 1,5-cz-[M(Lig)], Ca^II ([3]; 1 week at 80° C.): 83%
conversion to 1,5-cz-[M(Lig)], Cd^II ([3]; 1 week at 80° C.): 96%
conversion to 1,5-cz-[M(Lig)], Ca^II ([3]; 1 hour at 80° C.): 1%
conversion to 1,5-cz-[M(Lig)], Cd^II ([3]; 1 hour at 80° C., TD714 sum of two diastereoisomers): 2%
Compound: CC(C)(C)C#Cc1cccc(CN2CCN(CC(=O)O)CCN(Cc3cccc(CN=[N+]=[N-])n3)CCN(CC(=O)O)CC2)n1 [TD959]
